Where only a bound is given, the exact number is not on record here.

With `CNc1noc(C(C)c2cccc(C(=O)c3ccccc3)c2)n1` (stereo not given), the melting point (commonly the temperature of the solid-liquid transition) was 100 to 101 °C.
`Cc1cnc2c(NC(=O)c3ccccc3C(F)(F)F)cccc2c1N1CCN(C)C1=O` came in with a melting point of 182 to 191 °C.
In the case of `COc1ccc(-c2csc(NC(=O)c3cc4ccccc4cn3)n2)cc1OC` it was 228 to 230 °C.
In the case of `C=CCOC(=O)C1=C(C)NC(C)=C(C(=O)OCC=C)C1c1ccc(Br)cc1` it was 130 to 131 °C.
`CC1(C)OC(=O)N2CCNCC21` (stereo not given) gave a melting point of 92 to 93 °C.
Compound `Nc1c2c(nc3ccccc13)C1CCC2C1` (stereo not given) yielded a melting point of 185 to 186 °C.
In the case of `Cc1c2ccccc2c(C(=O)O)c2c(C(=O)O)cccc12` it was 275 to 280 °C; in that of `Cc1cccc(-c2cncc(Nc3ccc(Cl)cc3)n2)n1`, 186 to 188 °C.
In the case of `CSc1nc(C)nc2c1-c1ccc(Cl)cc1C(c1ccccc1)=NC2`, the melting point was in the range of 181 to 183 °C.
For `CNC(=S)C1(c2ccccc2)CCCCC1=O` (stereo not given) the value was 86 °C; for `COC(=O)c1snc(-c2cccc(C)c2)c1C(=O)OC`, 53 to 54.5 °C.
For `CC1OC(=O)N(C(=O)NCCCN2CCC(c3ccc(F)cc3)CC2)C1c1ccc(F)c(F)c1` (stereo not given) the value was 108 to 112 °C.
In the case of `O=C(c1ccccc1)c1ccc2nc(-c3ccc[nH]3)[nH]c2c1` it was 128 to 133 °C; in that of `O=[N+]([O-])c1cc2c(Nc3ccc(F)c(Cl)c3)ncnc2cc1OCC1CC1`, 204 °C; in that of `COc1ccccc1-n1c(-c2sc(Nc3ccccc3)nc2C)nc2ccccc2c1=O`, 169 to 170 °C.
`CCOC(=O)c1c(Cl)c(CC)c(C)[nH]c1=O`: the melting point came out at 167 °C.
Compound `C#CCCN1CC=C(c2ccccc2)CC1` had a melting point of 36.5 to 37.5 °C.
`Cc1nc2ncnn2c(N2CCC(C)CC2)c1C1CCCC1` displayed a melting point of 145 °C.
Consider `Cc1cc2c(cc1C(C)SCC(=O)O)OCO2` (stereo not given), for which the melting point fell in the range of 93.5 to 94.5 °C.
Take `COc1cc(OC)c([N+](=O)[O-])nc1N`: the melting point is 195 °C.
In the case of `O=c1ncc(Br)cn1CCC(O)Cl` (stereo not given), the melting point lay within 162 to 164 °C.
As to `Cn1cc(NC=O)cc1C(=O)O`, the melting point lay in the range of 208 to 210 °C.
In turn, `CC(C)(C)OC(=O)N1CCN(c2cccc3ccoc23)CC1` registered a melting point of 98 to 100 °C.
The compound `CC1COCc2nc3c(N)nc4ccc(OCCN5CCOCC5)cc4c3n21` (stereo not given) returned a melting point of 186 to 188 °C.
`Cc1ccc(N(c2ccc(-c3ccccc3)cc2)c2ccc(C)c(C)c2)cc1C` gave a melting point of 114 °C.
`COCCOc1ccccc1S(=O)(=O)NC(=O)Nc1nc(C)cc(OC)n1` showed a melting point of 160 to 162 °C.
For `COC(=O)c1cc(OC)c(OS(=O)(=O)C(F)(F)F)cc1N` the value was 85 to 87 °C.
In the case of `O=C1NC(=O)c2c1c(-c1cc([N+](=O)[O-])cc([N+](=O)[O-])c1)cc1[nH]c3ccc(O)cc3c21` it was greater than 330 °C.
For `O=C(CCC1CCCC1)Nc1ccc(-n2nc(C(F)(F)F)cc2C(F)(F)F)cc1`, the melting point lay within 130 to 132 °C.
`c1ccc2c(c1)NCc1c(-c3noc(C4CC4)n3)ncn1-2` had a melting point of 243 to 245 °C.
In turn, `CCC(Oc1cccc(C(F)(F)F)c1Cl)C1=NCCN1` (stereo not given) yielded a melting point of 102 to 103 °C.
Compound `O=C(NCCCl)NC1OC(CO)C(O)C1O` (stereo not given) returned a melting point of 166 to 168 °C.
In the case of `CC1C(=O)N(CC(N)=O)C(C)(C)N1C(=O)CN` (stereo not given) it was 118 °C; in that of `C#CCc1c(C)nc2c(NCc3ccccc3Cl)cccn12`, 115 to 116 °C.
`COC1N=C(c2ccccc2)c2cc(Cl)ccc2-n2nc(C(N)=O)nc21` (stereo not given) yielded a melting point of 264 to 267 °C.
In the case of `COc1ccc(C(=O)c2cccc(C(F)(F)F)c2F)c(OC)c1` it was 79 to 82 °C; in that of `COc1ccc(CCNC(=S)Cc2nnnn2C)cc1OC`, 90 to 92 °C.
In turn, `Cc1cc(Oc2ncc(C(F)(F)F)cc2Cl)nn1C(N)=O` showed a melting point of 101 to 104 °C.
For `O=c1[nH]c2cc(F)c([N+](=O)[O-])c(Br)c2[nH]c1=O`, the melting point lay in the range of 320 to 325 °C.
The compound `COc1ccc2c(ccn3c(C(F)(F)F)nnc23)c1` had a melting point of 214 to 215 °C.
`CN(C)CCCC1(c2ccc(OC3CCCCO3)cc2)Sc2ccccc2N(C)C1=O` (stereo not given) showed a melting point of 98.5 to 101 °C.
`FC(F)(F)c1cccc(-c2cc(C3CCNCC3)nnc2-c2ccncc2)c1` returned a melting point of 148 to 150 °C.
`COc1ccc(-c2nc(Cl)cc(N3CCN(C)CC3)n2)cc1` had a melting point of 88 to 90 °C.
As for `COCOc1cc(NC(=O)OC(C)(C)C)cc2ccccc12`, the melting point fell in the range of 64 to 66 °C.
For `CC(OC(=O)NCC1(CC(=O)O)CCCCC1)OC(=O)C(C)C` (stereo not given) the value was 63 to 64 °C; for `CS(=O)(=O)c1ccc(C2=C(c3ccc(CO)cc3)CCC2)cc1`, 114 to 115 °C.
`Cc1cc2c(cc1S(=O)(=O)N1CCOCC1)S(=O)(=O)NC(C1CCCCC1)N2` (stereo not given) registered a melting point of 268 to 271 °C.
For `CC1(C)OCc2cc([C@@H](O)C(=O)N[C@H]3CCc4ccc(O)cc4C3)ccc2O1` the value was 169 to 170 °C.
For `COC(=O)Cc1cn(-c2ccccc2)nc1OCc1ccc(OCc2nc(-c3ccccc3)oc2C)cc1`, the melting point was 113 to 114 °C.
On to `CC(C)C1(C)N=C(c2ncc(C3OCC(C)(C)CO3)cc2C(=O)O)NC1=O` (stereo not given), for which the melting point fell in the range of 163 to 170 °C.
On to `CCc1cc(C#N)ccc1N=C1OCC(C)(C)N1C1CCCC1`, for which the melting point fell in the range of 112 to 114 °C.
For `Cc1cn(C(C)C(=O)Nc2ccccc2)nc1-c1ccccc1` (stereo not given) the value was 79 to 82 °C; for `COC(=O)C(C)Oc1ccccc1S(N)(=O)=O` (stereo not given), 140 to 142 °C; for `O=C(O)CCCc1ccc(NS(=O)(=O)c2cccc(C(F)(F)F)c2)cn1`, 157 to 159 °C.
The compound `Cc1nn(-c2cncc(F)c2)cc1N` returned a melting point of 136 to 138 °C.
In the case of `OCCN1CC=C(c2c[nH]c3ccccc23)CC1` it was 164 to 165 °C; in that of `CC(C)C(=O)N(O)C(C)c1cc(C(C)(C)C)c(O)c(C(C)(C)C)c1` (stereo not given), 147 to 148 °C.
In turn, `CCc1nc(=O)c2ccccc2n1Cc1ccc(-c2ccccc2C#N)cc1` yielded a melting point of 207 to 208 °C.
Regarding `COC(=O)c1csc(NC(=O)c2cc(OC)c(OC)cc2OC)n1`, the melting point was in the range of 251 to 252 °C.
For the compound `COc1ccc(CCCCC(=O)O)cc1NC(=O)C[C@H]1O[C@H](c2cccc(OC)c2OC)c2cc(Cl)ccc2N(CC(C)(C)CO)C1=O`, the melting point was 136 to 138 °C.
With `Nc1ccccc1NS(=O)(=O)c1ccc([N+](=O)[O-])cc1`, the melting point was 190 to 191 °C.
Regarding `NC(=O)c1cc(F)cc(-c2cccc3cc(Cc4cccc(C(F)(F)F)c4)sc23)c1`, the melting point fell in the range of 165 to 166 °C.
On to `CC1=CSC(C)C(=O)N1` (stereo not given), for which the melting point was 78 to 80 °C.
`COCO[C@@H]1[C@H]2OC(C)(C)O[C@H]2[C@H](O[C@H]2C[C@H]3OC(C)(C)OC[C@]34C3C(CC[C@]4(O)C2)[C@@]2(O)CC[C@H](CO)[C@@]2(C)C[C@H]3OCOC)O[C@H]1C` (stereo not given in full) showed a melting point of 126 to 129 °C.
`O=C1C=CC(O)(c2cc3ccccc3n2S(=O)(=O)c2ccc(F)cc2)C=C1` registered a melting point of 165 to 166 °C.

The values are drawn from a melting point compilation (Tetko et al.; mined from patent text by program, amines drawn as free bases though some values may be those of a salt).
